Assay results reported in patent US7576071B2, “Antithrombotic compound” (sanofi-aventis, priority 2004, dated 2009).

Key:
Bovine factor Xa = experiment: Determination of anti-factor Xa activity in buffer (microtiter plate method, AT-III mediated); assay type: biochemical; settings: Kabi buffer, human AT-III
Description: II. Determination of Anti-Factor Xa Activity in Buffer
(Microtiter Plate Method)
Anticoagulants can inhibit Xa directly or, like heparin, by potentiating the inhibitory activity of AT-III. Anti-Xa activity can be assessed by determination of the rate of hydrolysis of the chromogenic substrate S-2222 in the presence of AT-III. This assay is used to determine anti-Xa activity of heparinoid preparations in Kabi buffer.
Test medium: Kabi buffer.
Ref. compound: International standard heparin (11.4 anti-Xa U/mg).
Composition of the buffer: NaCl 10.17 g (174 mmol); edetate disodium dihydrate 3.26 g (9.6 mmol); tromethamine (Tris) 6.11 g (50.4 mmol); made up to 1 L with ultrapure H2O *. The pH of the solution is adjusted to 7.4 with hydrochloric acid (0.10 mol/L)
Bovine factor Xa (Kabi Diagnostica, Stockholm, Sweden) is dissolved in Kabi buffer to give a solution containing 1.5 U/mL (0.75 nKat/mL). • 3. S-2222 solution
S-2222 (Kabi Diagnostica) is dissolved in ultrapure H2O to give a solution containing 0.375 mg/mL (0.5 mmol/L). • 4. AT-III solution
Human AT-III (Kabi Diagnostica) is dissolved in Kabi buffer to give a solution containing 0.25 U/mL. A fresh solution has to be prepared daily. • 5. Standard solution of the calibration sample
Standard heparin is dissolved in Kabi buffer to give a standard solution containing approx. 0.25 anti-Xa U/mL.
Each preparation is dissolved in ultrapure H2O and diluted with Kabi buffer to the required concentrations in the range of 0.02-0.2 anti-Xa U/mL
Each test sample (0.05 mL) is pipetted into a well of a microtiter plate at RT. AT-III solution (0.05 mL) is added to each sample and the plate is shaken using a Vari-shaker.
An aliquot of Xa solution (0.05 mL) is pipetted into each well 10 min following addition of AT-III solution and the plate is shaken again. Exactly 2 min following addition of Xa solution, 0.1 mL S-2222 solution is pipetted into each well and the plate is shaken again. For all additions a 12-channel pipette is used.
The remaining amount of Xa catalyses the hydrolysis of S-2222, the rate of which is measured photometrically following incubation periods of 2 and 22 min respectively at RT. The absorbance of each sample is measured at 405 nm using a Reader Microelisa, model 310C (Organon Teknika, Oss, The Netherlands) and the increase in absorbance (ΔOD) is calculated. Each test sample is determined in duplicate. With every 10 samples, a blank (0.05 mL Kabi buffer) is included.
From an aliquot of the standard solution of the calibration sample a range of dilutions is made (dilution factor 1,3 for heparin samples). The resulting standard samples (approx. 15 samples) should contain between 0.01-0.25 anti-Xa U/mL. […]
For each sample the mean anti-Xa activity in U/mL is determined using the calibration curve. […]

[1] = system: human platelets (platelet rich plasma), ADP-induced aggregation; experiment: In vitro test for inhibition of human platelet aggregation induced by ADP; assay type: cell-based; settings: 5 μM ADP; human PRP; mean of n experiments; entries marked b measured with a Chronolog aggregometer, others with micro plate reader; read-out: Inhibition of ADP-induced (5 μM) human platelet aggregation (IC50), mean
Description: I.a. In vitro Test for Inhibition of Human Platelet Aggregation Induced by ADP
Addition of adenosine diphosphate (ADP) to human platelet rich plasma (PRP) in vitro induces platelet aggregation. This aggregation can be assessed by measuring the optical density (OD) of the PRP. The in vitro test described here was used to determine the inhibitory activity of a test compound on the ADP-induced aggregation of human platelets. A micro plate reader is used to measure the activity of several compounds simultaneously.
An alternative vehicle is 0.9% NaCl in MQ H2O. The compound solution (either in MQ H2O or 0.9% NaCl in MQ H2O) is further diluted in 0.9% NaCl in MQ H2O.
Free-flowing blood (at least 100 mL) is taken from a healthy volunteer and collected in 0.1 volume 3.8% sodium citrate. 2H2O in distilled H2O (w/v). The final concentration is 0.38% sodium citrate.
The citrated blood is centrifuged at 1,600 N/kg (160 g) at RT. After 15 min, centrifugation is discontinued with the brake turned off and the supernatant (=PRP) is collected. • 2. ADP (Kordia/Chrono-par # 384). Before use, a solution of 50 μM in 0.9% NaCl is prepared. Equipment • 1. Sysmex blood cell counter model KX-21. • 2. Labsystems iEMS reader MF with a 620 nm filter, an orbital shaker set at 1,000 rpm and a constant temperature of 37° C. Absorption is measured with the Labsystems iEMS program. • 3. Blood collection system 600 mL with needle, art P4203 (NPBI). • 4. 96 wells flat bottom micro plates (Greiner Labortechnik). Procedure
The platelets in the supernatant (PRP) are counted using a Sysmex blood cell counter and the supernatant is diluted with PPP to obtain a PRP containing 400,000±50,000 plt/μL. PRP should stabilize at RT for at least 20 min but not longer than 3 h.
150 μL PRP is pipetted into a well of the micro plate. 30 μL test compound in a range of concentrations (7 concentrations per compound) or vehicle is added and the micro plate is placed in the Labsystems iEMS reader MF at 37° C. The optical density (OD620) is then measured at 620 nm. After shaking for 2 min in the reader (1,000 rpm), the OD is measured for the second time. This is to verify the stability of the platelets (absence of spontaneous platelet aggregation). Then, 20 μL of 50 μM ADP solution is added and the OD is kinetically measured every min for 14 min at 620 nm (FIG. 1). Between two measurements, the plate is shaking for 40 seconds at 1,000 rpm. Each test compound is investigated in at least 2 experiments using PRP from different volunteers.
The mean OD at each compound concentration (including vehicle) is calculated at t=0 min and t=10 min. The percentage inhibition at each concentration is calculated using the formula: […]
The IC50 of the test compound is the concentration of the test compound at which the ADP-induced platelet aggregation is reduced by 50%. For this, the percentage inhibition values are plotted against compound concentration. Then, IC50, nH (Hill slope) and efficacy of the test compound is calculated using Graphpad Prism 3.0 (with variable slope).
Reference: Salmon, D. M. (1996) Thrombosis Research 84, 213-216.

IC50 [1]: 630 nM
Substance: Methyl O-2,3-di-O-methyl-4-O-<<12-N-<N-(3-keto-benzenesulfonyl)-4-O-{4-(4-piperidinyl)-butyl}-L-tyrosine>-12-aza-3,6,9-trioxa-dodecyl>>-6-O-sulfo-alpha-D-glucopyranosyl-(1->4)-O-2,3-di-O-methyl-beta-D-glucopyranuronosyl-(1->4)-O-2,3,6-tri-O-sulfo-alpha-D-glucopyranosyl-(1->4)-O-2,3-di-O-methyl-alpha-L-idopyranuronosyl-(1>4)-3-O-methyl-2,6-di-O-sulfo-alpha-D-glucopyranoside octakis sodium salt [XIV]
Anti-Xa activity (Bovine factor Xa; substrate S-2222, calibrated against standard heparin): 735 ± 107 U/mg | Anti-Xa activity (Bovine factor Xa; substrate S-2222, per nmol (from U/mg and Mw)): 1.68 U/nmol
